# Measurements from patent US5635479A, “Treatment of gynecological malignancies with biologically active peptides” (Magainin Pharmaceuticals Inc., priority 1995, dated 1997).
# Square brackets hold non-standard residues; d marks the D form. Ends that are not written are not given here. Peptide text beside a SMILES is read from it. * marks the point of attachment. Octanoyl = CCCCCCCC(=O)*
# System: murine Spontaneous Ovarian Teratoma cells (SOT cells)
# Experiment: Survival and ascites accumulation of mice injected with Spontaneous Ovarian Teratoma cells
# Assay type: in vivo
# Details: for ILS / Median Survival Time: Table I, i.p. days 2 and 5 after SOT cells; for delay of accumulation of ascites fluid (body weight data): Example 1, FIG. 1, untreated mice began to accumulate fluid 5 to 7 days after implantation; for increase in lifespan: Example 1, FIG. 2, median day of death as endpoint; for accumulation of ascites fluid (body weight data) vs control group: Example 3, FIG. 4, peptides 20 mg/kg at 2 days, or 2 and 5 days, adriamycin 5 mg/kg on day 2 only; for survival time and survivors vs control group: Example 3, FIG. 3, 20 mg/kg at 2 days, or at 2 days and 5 days after SOT cells
# Method: Groups of mice, with six mice in each group, were injected with murine Spontaneous Ovarian Teratoma cells (SOT cells). At day 2, or at day 2 and day 5 after injection, the mice were injected with a saline solution, 5 mg/kg adriamycin (day 2 only), with 22 mg/kg of a peptide having the structure (SEQ ID NO:115)-NH2, or, in which each amino acid residue of (SEQ ID NO:115)-NH2 is a D-amino acid residue, such peptide hereinafter referred to as D-(SEQ ID NO:115)-NH2 or with 130 mg/kg of Cecropin A (SEQ ID NO:116)-NH2. The animals were monitored for survival time, the number of survivors in each group, the increase in lifespan, and the increase in body weight.
# The treatment with adriamycin increased the lifespan by 76%.
# Groups of mice, with 5 or 6 mice in each group, were injected with Spontaneous Ovarian Teratoma Cells. At 2 days and 5 days after the injection of the Spontaneous Ovarian Teratoma Cells (SOT cells), the groups of mice were injected intraperitoneally with a control saline solution, adriamycin, or with one of the following peptides:
# The mice in each group were then monitored for median survival time (in days) and for increase in life span (ILS) vis a vis the control group. The median survival time is the day of death of the third mouse in each group. The results for the groups of mice given intraperitoneal injections of peptide at days 2 and 5 following injection of SOT cells are given in Table I below.
# Groups of mice, with 6 mice in each group, were injected with Spontaneous Ovarian Teratoma Cells as described in Example 2. At 2 days, or at 2 days and 5 days after the injection of the SOT cells, the groups of mice were injected with saline (control), adriamycin (5 mg/kg-on day 2 only), or with 20 mg/kg of (SEQ ID NO:115)-NH2 or D-(SEQ ID NO:115)-NH2. The mice were then monitored for survival time, as well as for body weight.
# [1] = 22 mg/kg D-(SEQ ID NO:115)-NH2, 130 mg/kg (SEQ ID NO:116)-NH2, 5 mg/kg adriamycin
# [2] = administered on day 2 only, 22 mg/kg D-(SEQ ID NO:115)-NH2, 130 mg/kg (SEQ ID NO:116)-NH2, 5 mg/kg adriamycin
# [3] = administered on day 2 and day 5, 22 mg/kg D-(SEQ ID NO:115)-NH2, 130 mg/kg (SEQ ID NO:116)-NH2
# [4] = dose 130 mg/kg/day, control value not given
molecule,measurement,setting,value
CCCCCCCC(=O)N[C@@H](CCCCN)C(=O)N[C@H](C(=O)N[C@@H](C)C(=O)NCC(=O)N[C@@H](CCCCN)C(=O)N[C@H](C(=O)N[C@@H](C)C(=O)N[C@@H](CCCCN)C(=O)N[C@H](C(=O)N[C@@H](C)C(=O)NCC(=O)N[C@@H](CCCCN)C(=O)N[C@H](C(=O)N[C@@H](C)C(=O)N[C@@H](CCCCN)C(=O)N[C@H](C(=O)N[C@@H](C)C(=O)NCC(=O)N[C@@H](CCCCN)C(=O)N[C@H](C(=O)N[C@@H](C)C(N)=O)[C@@H](C)CC)[C@@H](C)CC)[C@@H](C)CC)[C@@H](C)CC)[C@@H](C)CC)[C@@H](C)CC [Oct-(SEQ ID NO:27)-NH2] (Octanoyl-KIAGKIAKIAGKIAKIAGKIA-NH2),ILS,"dose 20 mg/kg/day, controls 21",100%
same,Median Survival Time,"dose 20 mg/kg/day, controls 21",42 days
"COc1cccc2c1C(=O)c1c(O)c3c(c(O)c1C2=O)C[C@@](O)(C(=O)CO)C[C@@H]3O[C@H]1C[C@H](N)[C@H](O)[C@H](C)O1 [adriamycin, reference compound]",delay of accumulation of ascites fluid (body weight data),[1],at least 20 days
same,increase in lifespan,[2],76%
same,accumulation of ascites fluid (body weight data) vs control group,,delayed and was also significantly less
(SEQ ID NO:115)-NH2: peptide having the structure (SEQ ID NO:115)-NH2; sequence not printed in the text (GIGKFLKKAKKFAKAFVKIINN-NH2),survival time and survivors vs control group,,significantly greater survival times and had more survivors
same,accumulation of ascites fluid (body weight data) vs control group,,delayed and was also significantly less
same,ILS,"dose 20 mg/kg/day, controls 21",100%
same,Median Survival Time,"dose 20 mg/kg/day, controls 21",42 days
same,ILS,"dose 22 mg/kg/day, controls 21",81%
same,Median Survival Time,"dose 22 mg/kg/day, controls 21",38 days
"(SEQ ID NO:116)-NH2: Cecropin A, amide (KWKLFKKIEKVGQNIRDGIIKAGPAVAVVGQATQIAK-NH2)",delay of accumulation of ascites fluid (body weight data),[1],at least 20 days
same,increase in lifespan,[3],112%
same,increase in lifespan,[2],100%
same,ILS,[4],112%
same,Median Survival Time,[4],36 days
"(SEQ ID NO:117)-NH2: peptide of the sequence listing, amide; sequence not printed in the text (GIGKFLKSAKKFGKAFVKILNS-NH2)",ILS,"dose 45 mg/kg/day, controls 21",83%
same,Median Survival Time,"dose 45 mg/kg/day, controls 21",38 days
D-(SEQ ID NO:115)-NH2: (SEQ ID NO:115)-NH2 in which each amino acid residue is a D-amino acid residue (G[dI]G[dK][dF][dL][dK][dK][dA][dK][dK][dF][dA][dK][dA][dF][dV][dK][dI][dI][dN][dN]-NH2; N-terminus assumed; SMILES CC[C@@H](C)[C@@H](NC(=O)CN)C(=O)NCC(=O)N[C@H](CCCCN)C(=O)N[C@H](Cc1ccccc1)C(=O)N[C@H](CC(C)C)C(=O)N[C@H](CCCCN)C(=O)N[C@H](CCCCN)C(=O)N[C@H](C)C(=O)N[C@H](CCCCN)C(=O)N[C@H](CCCCN)C(=O)N[C@H](Cc1ccccc1)C(=O)N[C@H](C)C(=O)N[C@H](CCCCN)C(=O)N[C@H](C)C(=O)N[C@H](Cc1ccccc1)C(=O)N[C@@H](C(=O)N[C@H](CCCCN)C(=O)N[C@@H](C(=O)N[C@@H](C(=O)N[C@H](CC(N)=O)C(=O)N[C@H](CC(N)=O)C(N)=O)[C@H](C)CC)[C@H](C)CC)C(C)C),delay of accumulation of ascites fluid (body weight data),[1],at least 20 days
same,increase in lifespan,[3],144%
same,increase in lifespan,[2],115%
same,survival time and survivors vs control group,,significantly greater survival times and had more survivors
same,accumulation of ascites fluid (body weight data) vs control group,,delayed and was also significantly less
same,ILS,"dose 22 mg/kg/day, controls 17",144%
same,Median Survival Time,"dose 22 mg/kg/day, controls 17",41.5 days
same,ILS,"dose 22 mg/kg/day, controls 21",52%
same,Median Survival Time,"dose 22 mg/kg/day, controls 21",32 days
D-(SEQ ID NO:117)-NH2: D-form of (SEQ ID NO:117)-NH2 (G[dI]G[dK][dF][dL][dK][dS][dA][dK][dK][dF]G[dK][dA][dF][dV][dK][dI][dL][dN][dS]-NH2; N-terminus assumed; SMILES CC[C@@H](C)[C@@H](NC(=O)CN)C(=O)NCC(=O)N[C@H](CCCCN)C(=O)N[C@H](Cc1ccccc1)C(=O)N[C@H](CC(C)C)C(=O)N[C@H](CCCCN)C(=O)N[C@H](CO)C(=O)N[C@H](C)C(=O)N[C@H](CCCCN)C(=O)N[C@H](CCCCN)C(=O)N[C@H](Cc1ccccc1)C(=O)NCC(=O)N[C@H](CCCCN)C(=O)N[C@H](C)C(=O)N[C@H](Cc1ccccc1)C(=O)N[C@@H](C(=O)N[C@H](CCCCN)C(=O)N[C@@H](C(=O)N[C@H](CC(C)C)C(=O)N[C@H](CC(N)=O)C(=O)N[C@H](CO)C(N)=O)[C@H](C)CC)C(C)C),ILS,"dose 15 mg/kg/day, controls 21",67%
same,Median Survival Time,"dose 15 mg/kg/day, controls 21",35 days
